Laboratory results published in patent publication US11793824B2, “Administration of nicotinamide mononucleotide in the treatment of disease” (Washington University, priority 2013, dated 2023).

Columns and labels:
Format in all cases: in vivo, mouse
[1] = Age-associated increases in blood lipid levels
Experimental: (§1) A 12 month-long NMN administration study using wild-type mice under a regular chow-fed condition was conducted. NMN was administered through drinking water, and two doses of NMN, 100 and 300 mg/kg body weight/day, were tested. […] To assess beneficial and possible adverse effects of NMN, a variety of physiological parameters were periodically monitored, including body weight, body temperature, food and water intake, fed and fasted blood glucose levels, fed and fasted plasma lipid panels, and glucose and insulin tolerance, in NMN-administered and control mice. Blood chemistry, blood cell counts, urine strip test, and other physiological tests including physical activity test were also checked.
Blood levels of cholesterol, triglycerides, and free fatty acids are shown over 12 months in the control and the 100 and 300 mg/kg NMN-administered cohorts in FIG. 7. The results were analyzed with two-way RANOVA and one-way RANOVA. All values are presented as mean±SEM (n=25 for each group).
Without being limited by theory, since NMN has an effect of suppressing age-associated body weight increase, it was hypothesized that NMN's effect on blood lipid levels could be due to the reduction in body weight. To address this possibility, lipid levels were compared among individual mice whose average body weights were matched through control and experimental cohorts. Body weight-matched blood levels of cholesterol, triglycerides, and free fatty acids are shown over 12 months in the control and the 100 and 300 mg/kg NMN-administered cohorts in FIG. 8. The results were analyzed with two-way RANOVA and one-way RANOVA. All values are presented as mean±SEM (n=10-15 for each group). […] All values are presented as mean±SEM (n=10-15 for each group). These findings indicate that NMN has the effect of suppressing the age-associated increase in blood FFA levels, independent of the reduction in body weight. Without being limited by theory, the effect of NMN on blood cholesterol levels may be secondary to the effect of suppressing age-associated body weight increase.

[2] = Age-associated body weight increase, 12 month-long NMN administration; conditions: 12 months
Experimental: as §1
In these experiments, NMN was administered to mice at a dosage rate of 100 mg/kg per day or 300 mg/kg per day. […] The results were analyzed with two-way RANOVA and one-way RANOVA with the unweighted linear term. All values are presented as mean±SEM (n=15, 14, and 14 for control, 100, and 300 mg/kg NMN-administered groups).

NAMPT rod-CKO mice = test: ERG rescue in NAMPT rod-CKO mice
Excerpt: The inventors examined the effect of selectively disrupting NAD biosynthesis within PR. The inventors utilized the cre-lox strategy to generate mice that had NAMPT conditionally deleted from either rods (NAMPT rod-CKO) or cones (NAMPT cone-CKO). The NAMPT fl/fl mice as well as the rhodopsin-cre and cone opsin-cre mice have been previously characterized. Both rod and cone cko mice are generated with normal Mendelian frequencies and are born normal with no observable systemic abnormalities (data not shown). All structural and functional analyses performed in CKO mice are analyzed in comparison to littermate controls. Rods constitute a majority of the PR neurons (97% of all photoreceptors). […] Neurosensory retinal degeneration was associated with secondary atrophy and pallor of the optic nerve (FIG. 29C).
The present inventors determined that exogenous supplementation with NMN is able to rescue PR neurons from cell death in CKO mice. Intraperitoneal (i.p.) delivery was chosen to obtain early and sustained levels of NMN. In these experiments, NAMPT rod-CKO mice were given NMN (150 mg/kg) or PBS i.p. daily starting at day P5. […] There was no effect of NMN on littermate control animals.

[3] = 100 and 300 mg/kg groups vs control

SMILES: NC(=O)c1ccc[n+]([C@@H]2O[C@H](COP(=O)([O-])O)[C@@H](O)[C@H]2O)c1 [NMN, nicotinamide mononucleotide]
- increase of FFAs over time after body weight match ([1]; 100 mg/kg group): showed significant increases over time
- increase of blood FFAs over time ([1]; 100 mg/kg group, first 6 months): statistically significant increases
- increase of FFAs over time after body weight match ([1]; 300 mg/kg group): did not show any statistically significant increases over time
- increase of blood FFAs over time ([1]; 300 mg/kg group): did not show any statistically significant increase over time
- age-associated increases in blood levels of FFAs ([1]; 300 mg/kg, particularly at the 6-month time point): suppressed age-associated increases in blood levels of FFAs
- FFA levels after matching body weight [1, 3]: still lower
- blood cholesterol levels after matching body weight [1, 3]: very similar through control and experimental groups
- age-associated increases in blood cholesterol and free fatty acids ([1]; 100 and 300 mg/kg groups, 12 months): tended to be suppressed
- average percent body weight gain suppression normalized to control mice ([2]; 100 mg/kg group): 12%
- average percent body weight reduction normalized to control mice ([2]; 100 mg/kg group): 4%
- average percent body weight gain suppression normalized to control mice ([2]; 300 mg/kg group): 30%
- average percent body weight reduction normalized to control mice ([2]; 300 mg/kg group): 9%
- effect on littermate control animals (NAMPT rod-CKO mice; NMN 150 mg/kg i.p. daily): no effect
- photopic and scotopic function (ERG) (NAMPT rod-CKO mice; NMN 150 mg/kg i.p. daily from P5, ERG at 4 weeks, vs PBS): significant rescue
